Test results as given in patent publication US20090269794A1, “SCREENING METHOD FOR COMPOUND INHIBITING DEVELOPMENT OR PROGRESSION OF FAMILIAL AMYOTROPHIC LATERAL SCLEROSIS AND DIAGNOSTIC METHOD FOR FAMILIAL AMYOTROPHIC LATERAL SCLEROSIS” (HISAMITSU PHARMACEUTICAL CO., INC., priority 2005, published 2009).

Experiments:
[1] = system: NEDL1 mRNA; assay: NEDL1 mRNA expression by semi-quantitative RT-PCR in SK-N-BE (2) C cells; assay type: cell-based, human; conditions: 250 μM DFO for 24 hours, FIG. 2
Experimental: Human neuroblastoma SK-N-BE (2) C cells were cultured in Dulbecco's […] (DMEM) containing 10% heat treated fetal bovine serum (FBS). Hypoxia culturing was carried out in a 2% oxygen concentration, with the cells in a Napco automatic O2/CO2 cell culture apparatus (Waken Co., Ltd.). DFO (Sigma) treatment was carried out by exposing the cells to 250 μM DFO for 24 hours.
(Reverse Transcription Polymerase Chain Reaction (RT-PCR)) TRIZOL reagent (Invitrogen Corp.) was used according to the manufacturer's manual to prepare total RNA from untreated, hypoxia-treated, DFO-treated cells and the transfected cells. RT-PCR was conducted in the following manner. The prepared total RNA (1 μg/2.5 μL) was incubated at 75° C. for 5 minutes and then allowed to stand on ice for 5 minutes. The prepared RNA was added to a mixture of 0.5 μL RNase inhibitor (40 units/μL, Toyobo, Ltd.), 0.5 μL M-MLV reverse transcriptase (200 units/μL, Invitrogen Corp.), 1 μL 50×dNTPs (2 mM each), 0.5 μL oligo(dT) primer (0.5 mg/mL, Invitrogen Corp.), 2 μL 5×first-strand buffer (Invitrogen Corp.) and 1 μL 0.1 M dithiothreitol, and the mixture was incubated for 10 minutes at room temperature, 45 minutes at 37° C. and 3 minutes at 95° C. to prepare cDNA. The prepared cDNA was used as template with the primers under the following PCR conditions to amplify the NEDL1 and β-actin gene cDNA fragments. […]

[2] = system: HIF-1α; conditions: cells exposed to DFO, normal oxygen conditions, Non-patent document 12; cited from earlier work

SMILES: CC(=O)N(O)CCCCCNC(=O)CCC(=O)N(O)CCCCCNC(=O)CCC(=O)N(O)CCCCCN [DFO, desferrioxamine]
- NEDL1 mRNA expression [1]: increased
- HIF-1α detection as protein [2]: detected
